The record followed here is PMC8078834 (FASEB journal : official publication of the Federation of …, 2021).

The assay concerns the target myeloperoxidase (MPO) (Homo sapiens, UniProt P05164). Kind of assay: microscale thermophoresis. The format is binding. (Microscale thermophoresis detects binding through changes in fluorescence in a small temperature gradient.)

Usually Kd stands for a measure of binding affinity in units of concentration. Higher therefore signals weaker binding.

Chain of myeloperoxidase (MPO) (P05164 165-273): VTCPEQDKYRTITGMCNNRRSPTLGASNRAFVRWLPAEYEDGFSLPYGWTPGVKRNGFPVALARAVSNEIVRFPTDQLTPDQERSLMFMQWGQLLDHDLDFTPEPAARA
Chain of myeloperoxidase (MPO) (P05164 279-745): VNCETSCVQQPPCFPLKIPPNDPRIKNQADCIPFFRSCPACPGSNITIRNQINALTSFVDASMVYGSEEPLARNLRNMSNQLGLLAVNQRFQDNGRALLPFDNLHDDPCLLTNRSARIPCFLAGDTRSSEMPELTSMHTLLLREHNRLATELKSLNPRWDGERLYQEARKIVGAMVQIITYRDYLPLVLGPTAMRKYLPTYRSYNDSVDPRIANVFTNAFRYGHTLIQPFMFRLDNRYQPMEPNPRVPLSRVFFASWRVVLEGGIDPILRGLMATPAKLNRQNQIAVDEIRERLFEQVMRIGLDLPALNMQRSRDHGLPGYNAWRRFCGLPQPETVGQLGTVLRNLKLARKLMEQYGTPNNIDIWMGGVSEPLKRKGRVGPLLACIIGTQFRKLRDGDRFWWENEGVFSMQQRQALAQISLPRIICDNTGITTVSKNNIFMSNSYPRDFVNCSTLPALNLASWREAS

Consider `c1ccc2[nH]ccc2c1` [indole, 1H-indole], for which the Kd was determined as 272 ± 77.4 µM.
